Here are results for 27 compounds from patent US8471005B2 (Cephalon, Inc., priority 2008, dated 2013).

For test [1], the target named is T1, JAK2 (Homo sapiens, UniProt O60674).
T1 construct: host or cells: baculovirus expression system
Put plainly: Recombinant Human JAK2 Kinase Assay (TRF). The test is classed as biochemical. Conditions: JAK2 Kinase Inhibition; read-out: JAK2 Potency. The method in brief: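 Europium-labelled PY100 antibody reported tyrosine phosphorylation of a Neutravidin-captured biotinyl 15-mer peptide by JAK2 (baculovirus-expressed, 15 ng/ml). Conditions: 20 mM HEPES pH 7.2, 0.2 μM ATP, 1 mM MnCl2, 0.1% BSA, DMSO 2.5% final, 20 min at room temperature.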

Test [2] deals with T2, ALK (Homo sapiens, UniProt Q9UM73).
T2 construct: host or cells: baculovirus expression system
T2 sequence (Q9UM73 19-1620): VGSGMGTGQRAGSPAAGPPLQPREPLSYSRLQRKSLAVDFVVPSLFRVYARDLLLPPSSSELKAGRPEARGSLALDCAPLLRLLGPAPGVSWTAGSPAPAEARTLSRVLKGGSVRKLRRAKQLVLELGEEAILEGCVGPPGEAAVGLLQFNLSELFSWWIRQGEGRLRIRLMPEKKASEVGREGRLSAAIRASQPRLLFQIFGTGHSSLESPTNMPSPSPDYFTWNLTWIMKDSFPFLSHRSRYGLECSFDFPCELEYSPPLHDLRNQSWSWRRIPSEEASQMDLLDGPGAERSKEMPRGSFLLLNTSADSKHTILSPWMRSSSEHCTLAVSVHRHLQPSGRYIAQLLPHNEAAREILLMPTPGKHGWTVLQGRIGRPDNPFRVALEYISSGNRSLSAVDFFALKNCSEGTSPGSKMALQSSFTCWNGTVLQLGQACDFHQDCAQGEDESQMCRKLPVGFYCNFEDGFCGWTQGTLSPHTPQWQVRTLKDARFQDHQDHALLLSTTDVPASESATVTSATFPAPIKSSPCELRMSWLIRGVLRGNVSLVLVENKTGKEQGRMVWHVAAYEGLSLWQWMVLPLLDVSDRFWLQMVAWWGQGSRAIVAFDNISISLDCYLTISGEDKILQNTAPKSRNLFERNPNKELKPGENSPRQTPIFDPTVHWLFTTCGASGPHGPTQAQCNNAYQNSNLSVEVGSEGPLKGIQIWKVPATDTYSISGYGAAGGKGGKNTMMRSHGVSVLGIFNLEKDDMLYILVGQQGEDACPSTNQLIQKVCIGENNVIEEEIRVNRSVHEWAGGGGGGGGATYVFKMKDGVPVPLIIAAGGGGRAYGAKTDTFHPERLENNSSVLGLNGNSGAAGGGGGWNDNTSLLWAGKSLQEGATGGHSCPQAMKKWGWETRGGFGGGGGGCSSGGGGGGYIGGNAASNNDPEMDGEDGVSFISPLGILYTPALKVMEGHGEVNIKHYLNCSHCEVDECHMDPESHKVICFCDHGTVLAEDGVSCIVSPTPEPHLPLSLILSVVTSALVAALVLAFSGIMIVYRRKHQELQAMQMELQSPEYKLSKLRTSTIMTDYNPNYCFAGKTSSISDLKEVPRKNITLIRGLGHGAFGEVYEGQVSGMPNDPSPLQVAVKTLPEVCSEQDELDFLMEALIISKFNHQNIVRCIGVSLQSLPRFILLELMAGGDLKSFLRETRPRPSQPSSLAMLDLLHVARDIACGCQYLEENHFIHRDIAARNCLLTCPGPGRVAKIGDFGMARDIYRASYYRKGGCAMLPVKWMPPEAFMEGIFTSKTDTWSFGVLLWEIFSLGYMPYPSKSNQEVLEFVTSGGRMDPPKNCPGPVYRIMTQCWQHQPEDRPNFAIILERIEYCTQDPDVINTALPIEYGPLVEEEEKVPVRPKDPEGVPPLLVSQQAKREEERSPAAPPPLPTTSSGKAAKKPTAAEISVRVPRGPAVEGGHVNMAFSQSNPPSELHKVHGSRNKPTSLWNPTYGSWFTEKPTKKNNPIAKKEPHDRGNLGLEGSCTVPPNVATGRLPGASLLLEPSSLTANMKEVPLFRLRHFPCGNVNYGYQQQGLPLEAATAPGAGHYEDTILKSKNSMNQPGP
In words: ALK Kinase Assay (ELISA/TRF, PLC-γ substrate). The test is classed as biochemical. Particulars: ALK Kinase Inhibition; read-out: ALK Potency. The method in brief: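 Wells were coated with 10 μg/mL phospholipase C-γ substrate in TBS, and the reaction was started by adding 30 ng/ml ALK enzyme and run at 37° C for 15 minutes. Phosphorylated product was detected with Eu-N1-labeled PT66 antibody, and IC50 values came from sigmoidal variable-slope fits of percent inhibition against log concentration.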

T1 sequence (O60674 whole entry): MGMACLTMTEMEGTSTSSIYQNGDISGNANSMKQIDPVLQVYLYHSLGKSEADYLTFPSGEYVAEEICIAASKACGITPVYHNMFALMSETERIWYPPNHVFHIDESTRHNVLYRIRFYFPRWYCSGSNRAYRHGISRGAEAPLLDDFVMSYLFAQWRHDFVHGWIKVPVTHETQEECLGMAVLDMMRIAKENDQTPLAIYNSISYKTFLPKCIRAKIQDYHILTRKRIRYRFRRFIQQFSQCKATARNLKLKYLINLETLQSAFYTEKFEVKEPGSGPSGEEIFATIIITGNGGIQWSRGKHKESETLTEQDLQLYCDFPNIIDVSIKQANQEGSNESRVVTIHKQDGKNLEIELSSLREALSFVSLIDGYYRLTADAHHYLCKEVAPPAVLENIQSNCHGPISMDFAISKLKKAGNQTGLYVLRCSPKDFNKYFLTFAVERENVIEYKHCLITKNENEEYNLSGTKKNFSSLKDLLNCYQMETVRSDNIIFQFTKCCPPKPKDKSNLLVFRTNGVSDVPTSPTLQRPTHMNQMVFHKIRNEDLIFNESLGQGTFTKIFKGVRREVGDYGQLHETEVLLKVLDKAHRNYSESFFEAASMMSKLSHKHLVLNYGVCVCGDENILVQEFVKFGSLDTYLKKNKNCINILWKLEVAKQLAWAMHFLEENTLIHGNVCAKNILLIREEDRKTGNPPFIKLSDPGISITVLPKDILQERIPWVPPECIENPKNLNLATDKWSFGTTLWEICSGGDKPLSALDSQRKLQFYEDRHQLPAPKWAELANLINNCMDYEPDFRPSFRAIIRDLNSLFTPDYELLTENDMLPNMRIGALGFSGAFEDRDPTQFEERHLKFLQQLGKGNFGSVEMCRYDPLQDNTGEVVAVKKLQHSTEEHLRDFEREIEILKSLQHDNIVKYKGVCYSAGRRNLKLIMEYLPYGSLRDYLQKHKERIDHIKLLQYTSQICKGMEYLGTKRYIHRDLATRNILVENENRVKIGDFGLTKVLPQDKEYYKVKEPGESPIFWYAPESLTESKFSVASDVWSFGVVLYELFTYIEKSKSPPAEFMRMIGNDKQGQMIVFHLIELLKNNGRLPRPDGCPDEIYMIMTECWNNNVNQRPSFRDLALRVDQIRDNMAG

Regarding `CSc1cc(N2CCN(C[C@H](C)O)CC2)c(F)cc1Nc1ncc2ccc(-c3ccccc3N(C)S(C)(=O)=O)n2n1` [Example 1483, N-[2-(2-{5-Fluoro-4-[4-((S)-2-hydroxy-propyl)-piperazin-1-yl]-2-methylsulfanyl-phenylamino}-pyrrolo[2,1-f][1,2,4]triazin-7-yl)-phenyl]-N-methyl-methanesulfonamide], the IC50 in test [1] is 1000 to 10000 nM; in test [2], less than 100 nM.
For `C[C@H](O)CN1CCN(c2cc([S@@+](C)[O-])c(Nc3ncc4ccc(-c5ccccc5N(C)S(C)(=O)=O)n4n3)cc2F)CC1` [Example 1484, (R,S)—N-[2-(2-{5-Fluoro-4-[4-((S)-2-hydroxy-propyl)-piperazin-1-yl]-2-methanesulfinyl-phenylamino}-pyrrolo[2,1-f][1,2,4]triazin-7-yl)-phenyl]-N-methyl-methanesulfonamide], in that order: less than 100 nM and less than 100 nM.
As for `C[C@H](O)CN1CCN(c2cc([S@@+](C)[O-])c(Nc3ncc4ccc(-c5ccccc5N(C)S(C)(=O)=O)n4n3)cc2F)CC1` [Example 1485, (R,S)—N-[2-(2-{5-Fluoro-4-[4-((S)-2-hydroxy-propyl)-piperazin-1-yl]-2-methanesulfinyl-phenylamino}-pyrrolo[2,1-f][1,2,4]triazin-7-yl)-phenyl]-N-methyl-methanesulfonamide], the figures for the IC50 in test [1] and in test [2] were less than 100 nM and 100 to 1000 nM, respectively.
Turning to `COc1cc2c(cc1Nc1ncc3ccc(-c4ccccc4OC)n3n1)C(=O)CC1(CCN(C)CC1)O2` [Example 1491], the values for the IC50 in test [1] and in test [2] were 100 to 1000 nM and less than 100 nM, respectively.
For `Cc1cc2[nH]c(=O)oc2cc1Nc1ncc2ccc(-c3ccccc3N(C)S(C)(=O)=O)n2n1` [Example 1492, N-Methyl-N-{2-[2-(5-methyl-2-oxo-2,3-dihydro-benzoxazol-6-ylamino)-pyrrolo[2,1-f][1,2,4]triazin-7-yl]-phenyl}-methanesulfonamide], in that order: 100 to 1000 nM and 100 to 1000 nM.
For `Cc1c(Nc2ncc3ccc(-c4ccccc4N(C)S(C)(=O)=O)n3n2)ccc2[nH]c(=O)oc12` [Example 1493, N-Methyl-N-{2-[2-(7-methyl-2-oxo-2,3-dihydro-benzoxazol-6-ylamino)-pyrrolo[2,1-f][1,2,4]triazin-7-yl]-phenyl}-methanesulfonamide], in that order: 100 to 1000 nM and 100 to 1000 nM.
Regarding `COc1ccccc1-c1ccc2cnc(C#N)nn12` [Example 1494, 7-(2-Methoxy-phenyl)-pyrrolo[2,1-f][1,2,4]triazine-2-carbonitrile], the IC50 in test [1] and in test [2] was greater than 10000 nM throughout.
For the compound `COc1ccccc1-c1ccc2cnc(C(N)=O)nn12` [Example 1495, 7-(2-Methoxy-phenyl)-pyrrolo[2,1-f][1,2,4]triazine-2-carboxylic acid amide], the IC50 in test [1] and in test [2] was greater than 10000 nM throughout.
In the case of `COc1cc2c(cc1Nc1ncc3ccc(-c4ccccc4N(C)S(C)(=O)=O)n3n1)CCC1(CCN(C[C@H](C)O)CC1)O2` [Example 1496, N-{2-[2-({1′-[(25)-2-hydroxypropyl]-7-methoxy-3,4-dihydrospiro[chromene-2,4′-piperidin]-6-yl}amino)pyrrolo[2,1-f][1,2,4]triazin-7-yl]phenyl}-N-methylmethanesulfonamide], the IC50 in test [1] was 1000 to 10000 nM; in test [2], less than 100 nM.
For `CN1CCN(c2ccc(Nc3ncc4ccc(-c5ccc(CO)cc5)n4n3)cc2)CC1` [Example 1497, (4-{2-[4-(4-Methyl-piperazin-1-yl)-phenylamino]-pyrrolo[2,1-f][1,2,4]triazin-7-yl}-phenyl)-methanol], in that order: less than 100 nM and less than 100 nM.
Take `CN1CCN(c2ccc(Nc3ncc4ccc(-c5cccc(CO)c5)n4n3)cc2)CC1` [Example 1498, (3-{2-[4-(4-Methyl-piperazin-1-yl)-phenylamino]-pyrrolo[2,1-f][1,2,4]triazin-7-yl}-phenyl)-methanol]: the IC50 in test [1] and in test [2] was less than 100 nM in each case.
In the case of `COCc1ccc(-c2ccc3cnc(Nc4ccc(N5CCN(C)CC5)cc4)nn23)cc1` [Example 1499, [7-(4-Methoxymethyl-phenyl)-pyrrolo[2,1-f][1,2,4]triazin-2-yl]-[4-(4-methyl-piperazin-1-yl)-phenyl]-amine], the IC50 was less than 100 nM in test [1] and 100 to 1000 nM in test [2].
For `COCc1ccccc1-c1ccc2cnc(Nc3ccc(N4CCN(C)CC4)cc3)nn12` [Example 1500, [7-(2-Methoxymethyl-phenyl)-pyrrolo[2,1-f][1,2,4]triazin-2-yl]-[4-(4-methyl-piperazin-1-yl)-phenyl]-amine], in that order: less than 100 nM and less than 100 nM.
Taken in the same sequence, the figures for `COc1ccccc1-c1ccc2cnc(-c3nnc(C)[nH]3)nn12` [Example 1501, 7-(2-Methoxy-phenyl)-2-(5-methyl-4H-[1,2,4]triazol-3-yl)-pyrrolo[2,1-f][1,2,4]triazine] were greater than 10000 nM and greater than 10000 nM.
For `COc1ccccc1-c1ccc2cnc(-c3nnn[nH]3)nn12` [Example 1502, 7-(2-Methoxy-phenyl)-2-(1H-tetrazol-5-yl)-pyrrolo[2,1-f][1,2,4]triazine], in that order: greater than 10000 nM and greater than 10000 nM.
Turning to `COCc1cccc(-c2ccc3cnc(Nc4ccc(N5CCN(C)CC5)cc4)nn23)c1` [Example 1503, [7-(3-Methoxymethyl-phenyl)-pyrrolo[2,1-f][1,2,4]triazin-2-yl]-[4-(4-methyl-piperazin-1-yl)-phenyl]-amine], the IC50 in test [1] is less than 100 nM; in test [2] it was 100 to 1000 nM.
For `CN1CCN(c2ccc(Nc3ncc4ccc(-c5ccccc5CO)n4n3)cc2)CC1` [Example 1504, (2-{2-[4-(4-Methyl-piperazin-1-yl)-phenylamino]-pyrrolo[2,1-f][1,2,4]triazin-7-yl}-phenyl)-methanol], in that order: less than 100 nM and 100 to 1000 nM.
Taken in the same sequence, the figures for `COc1ccccc1-c1ccc2cnc(-c3nc4cc(N5CCN(C)CC5)ccc4[nH]3)nn12` [Example 1505, 7-(2-Methoxy-phenyl)-2-[5-(4-methyl-piperazin-1-yl)-1H-benzimidazol-2-yl]-pyrrolo[2,1-f][1,2,4]triazine] were 1000 to 10000 nM and 1000 to 10000 nM.
For `O=S1(=O)CCCN1c1cccc(-c2ccc3cnc(Nc4cccc(-n5cccn5)c4)nn23)c1` [Example 1506, 7-[3-(1,1-Dioxido-1,2-thiazolidin-2-yl)phenyl]-N-[3-(1H-pyrazol-1-yl)phenyl]pyrrolo[2,1-f][1,2,4]triazin-2-amine], in that order: less than 100 nM and greater than 10000 nM.
On to `O=S1(=O)CCCN1c1cccc(-c2ccc3cnc(Nc4ccc5c(c4)CCC(N4CCOCC4)CC5)nn23)c1` (stereo not drawn) [Example 1507, 7-[3-(1,1-Dioxido-1,2-thiazolidin-2-yl)phenyl]-N-[7-(morpholin-4-yl)-6,7,8,9-tetrahydro-5H-benzo[7]annulen-2-yl]pyrrolo[2,1-f][1,2,4]triazin-2-amine], for which the IC50 in test [1] was less than 100 nM; in test [2], 100 to 1000 nM.
For `CC(=O)Nc1cccc(Nc2ncc3ccc(-c4cccc(N5CCCS5(=O)=O)c4)n3n2)c1` [Example 1508, N-[3-({7-[3-(1,1-Dioxido-1,2-thiazolidin-2-yl)phenyl]pyrrolo[2,1-f][1,2,4]triazin-2-yl}amino)phenyl]acetamide], in that order: less than 100 nM and 1000 to 10000 nM.
In the case of `CN1CCN(c2cccc(Nc3ncc4ccc(-c5cccc(N6CCCS6(=O)=O)c5)n4n3)c2)CC1` [Example 1509, 7-[3-(1,1-Dioxido-1,2-thiazolidin-2-yl)phenyl]-N-[3-(4-methylpiperazin-1-yl)phenyl]pyrrolo[2,1-f][1,2,4]triazin-2-amine], the IC50 in test [1] is less than 100 nM; in test [2], 100 to 1000 nM.
For `CC1(C)C(=O)Nc2cc(Nc3ncc4ccc(-c5cccc(N6CCCS6(=O)=O)c5)n4n3)ccc21` [Example 1510, 6-({7-[3-(1,1-Dioxido-1,2-thiazolidin-2-yl)phenyl]pyrrolo[2,1-f][1,2,4]triazin-2-yl}amino)-3,3-dimethyl-1,3-dihydro-2H-indol-2-one], in that order: less than 100 nM and 1000 to 10000 nM.
For `O=S1(=O)CCCN1c1cccc(-c2ccc3cnc(Nc4ccc5nc[nH]c5c4)nn23)c1` [Example 1511, N-(1H-Benzimidazol-6-yl)-7-[3-(1,1-dioxido-1,2-thiazolidin-2-yl)phenyl]pyrrolo[2,14][1,2,4]triazin-2-amine], in that order: less than 100 nM and 1000 to 10000 nM.
As to `NC(=O)CN1CCC(c2ccc(Nc3ncc4ccc(-c5cccc(N6CCCS6(=O)=O)c5)n4n3)cc2)CC1` [Example 1512, 2-{4-[4-({7-[3-(1,1-Dioxido-1,2-thiazolidin-2-yl)phenyl]pyrrolo[2,1-f][1,2,4]triazin-2-yl}amino)phenyl]piperidin-1-yl}acetamide], the IC50 in test [1] is less than 100 nM; in test [2], 100 to 1000 nM.
Take `COc1ccc(-c2ccc3cnc(Nc4ccc5nc(CN6CCOCC6)[nH]c5c4)nn23)cn1` [Example 1513, [7-(6-Methoxy-pyridin-3-yl)-pyrrolo[2,1-f][1,2,4]triazin-2-yl]-(2-morpholin-4-ylmethyl-3H-benzimidazol-5-yl)-amine]: the IC50 was less than 100 nM in test [1] and 1000 to 10000 nM in test [2].
Take `CC(C)(C)NS(=O)(=O)c1cccc(-c2ccc3cnc(Nc4ccc5nc(CN6CCOCC6)[nH]c5c4)nn23)c1` [Example 1514, N-tert-Butyl-3-[2-(2-morpholin-4-ylmethyl-3H-benzimidazol-5-ylamino)-pyrrolo[2,1-f][1,2,4]triazin-7-yl]-benzenesulfonamide]: the IC50 in test [1] is less than 100 nM; in test [2], 100 to 1000 nM.
